Assay results as given in patent publication US11905273B2, “Inhibitors for the B-catenin/B-cell lymphoma 9 (BCL9) protein-protein interaction” (H. LEE MOFFITT CANCER CENTER AND RESEARCH INSTITUTE, INC., priority 2017, dated 2024).
Where a name gives a salt, the structure may show the parent alone. Read-outs that look alike come from different tables or passages of the source.

Columns and labels:
[1] = target: β-catenin/BCL9 (Homo sapiens (Human), UniProt P35222); assay: AlphaScreen competitive inhibition assay of the β-catenin/BCL9 interaction; assay type: binding; settings: read-out: Ki ± SD β-catenin/BCL9
Chain of β-catenin/BCL9 (P35222 whole entry): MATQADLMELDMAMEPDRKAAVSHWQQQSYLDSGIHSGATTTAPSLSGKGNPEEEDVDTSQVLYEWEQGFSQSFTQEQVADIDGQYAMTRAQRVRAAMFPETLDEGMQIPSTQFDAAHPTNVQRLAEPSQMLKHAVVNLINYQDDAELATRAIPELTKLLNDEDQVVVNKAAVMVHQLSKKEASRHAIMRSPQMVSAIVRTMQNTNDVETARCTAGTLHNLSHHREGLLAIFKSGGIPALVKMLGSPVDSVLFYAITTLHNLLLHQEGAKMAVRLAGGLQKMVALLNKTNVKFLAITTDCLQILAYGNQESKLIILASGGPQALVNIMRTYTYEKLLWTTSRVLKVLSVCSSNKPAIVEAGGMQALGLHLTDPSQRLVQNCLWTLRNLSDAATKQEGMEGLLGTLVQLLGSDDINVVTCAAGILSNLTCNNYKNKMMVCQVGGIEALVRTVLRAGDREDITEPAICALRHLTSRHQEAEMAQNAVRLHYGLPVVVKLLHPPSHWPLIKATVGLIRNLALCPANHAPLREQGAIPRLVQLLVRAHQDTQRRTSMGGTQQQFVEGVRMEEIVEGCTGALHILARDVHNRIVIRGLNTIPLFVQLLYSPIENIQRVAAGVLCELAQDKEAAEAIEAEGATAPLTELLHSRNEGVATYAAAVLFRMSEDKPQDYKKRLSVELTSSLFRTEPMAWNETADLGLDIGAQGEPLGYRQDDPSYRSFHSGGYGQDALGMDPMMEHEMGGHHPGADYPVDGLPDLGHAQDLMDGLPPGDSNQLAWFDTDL
Protocol: AlphaScreen Assays. All experiments were performed in shite opaque 384-well plates from PerkinElmer (Waltham, MA) with an assay buffer of 25 mM HEPES (pH=7.4), 100 Mm nAcL, 0.1% BSA, and 0.01% Triton X-100. All sample signals were read on a excitation wavelength was set at 680 nm and emission at 570 nm. All of the final reaction volumes were set to 25 μL. In the cross-titration experiments of the wild-type β-catenin//wild-ty-e BCL9 interaction, N-terminally biotinlyated BCL9 (from 0 to 60 nM) and C-terminally His6-tagged μcatenin (2.5, 5, 10, 20, 40, and 80 nM) were titrated in 20 μg/mL) were added. The mixture was then covered black and incubated at 4° C. for 1 h before detection. All addition and incubation was made under subdued lighting conditions due to the photosensitivity of the beads. The data were analyzed by nonlinear least-square analyses using GraphPad Prism 5.0. Each experiment was repeated three times, and the results were expressed as mean ±standard deviation. The competitive binding experiments were performed to determine the apparent Kd values. The rule of the competitive binding experiments for associating the IC50 value with the Kd value are: (1) the expected Kd value should be 10 times higher than the concentration of either tested protein: (2) the concentrations of both tested proteins should be lower than the binding capacities of their respective beads; and (3) the concentration of the target protein (His6-tagged β-catenin) should be 10 times lower than that of the ligand protein (biotinylated BCL9). […] The donor and acceptor beads were added to a final concentration of 10 μg/mL in 25 μL assay buffer. The mixture was covered black and incubated for 1 h at 4° C. before detection. The IC50 values, which sere also the apparent Kd values from the AlphaScreen assay, were determined by nonlinear least-square analyses using GraphPad Prism 5.0. Each experiment was repeated three times, and the results were expressed as mean ±standard deviation.
For the β-catenin/BCL9 competitive inhibition assay, 5 nM of biotinylated BCL9 and 40 nM of His6-tagged β-catenin were incubated in assay buffer at 4° C. for 30 min. Different concentrations of the tested inhibitor were added and incubated in 20 μL assay buffer at 4°C. for another 1 h. All of the above assay plates were covered and gently mixed on an orbital shaker. The donor and acceptor beads were then added to the plates to a final concentration of 10 μg/mL in 25 μL assay buffer. The mixture was incubated for 1 h at 4° C. before detection. The IC50 value was determined by nonlinear least-square analysis of GraphPad Prism 5.0. The inhibition constant (Ki) values were derived from the […] values using a method reported by Nikolovska-Coleska et al.^26. […] The results were expressed as mean ±standard deviation.

[2] = system: SW480; assay: MTs cancer cell growth inhibition assay, SW480; assay type: cell-based; settings: Wnt/β-catenin-hyperactive, 72 h, mean ± SD (n = 3)
Protocol: (§1) MTs Cell Viability Assay. Colorectal cancer cell lines, SW480 and HCT116, and triple-negative breast cancer cell line MDA-MB-231 were seeded in 96-well plates at 4=10^3 cells/well, maintained overnight at 37°C., and incubated in the presence of 1 and 2 at various concentrations. Cell viability was monitored after 72 h using a freshly prepared mixture of 1 part phenazine methosulfate (PMS, Sigma) solution (0.92 mg/mL) and 19 parts 3-(4,5-dimethylthiazol-2-yl)-5-(3-carboxymethoxyphenyl)-2-(4-sulfophenyl)-2H-tetrazolium (MTs, Promega) solution (2 mg/mL). Cells were incubated in 10 μL of this solution at 37° C. for 3 h, and A490 was measured. […] Experiments were performed in triplicate.

[3] = system: HCT116; assay: MTs cancer cell growth inhibition assay, HCT116; assay type: cell-based; settings: Wnt/β-catenin-hyperactive, 72 h, mean ± SD (n = 3)
Protocol: as §1

[4] = system: MDA-MB-231; assay: MTs cancer cell growth inhibition assay, MDA-MB-231; assay type: cell-based; settings: Wnt/β-catenin-hyperactive, 72 h, mean ± SD (n = 3)
Protocol: as §1

[5] = system: A549; assay: MTs growth inhibition assay, A549; assay type: cell-based; settings: Wnt-latent, mean ± SD (n = 3)
[6] = target: TOPFlash luciferase reporter (three wild-type Tcf binding sites) in SW480; assay: Wnt-responsive TOPFlash luciferase reporter assay, SW480; assay type: cell-based; settings: 24 h treatment, mean ± SD (n = 3)
Protocol: (§2) Cell transfection and luciferase assay. FuGENE6(E269A, Promega) 96 well plate format was used for the transfection of HEK293 and SW480 cells according to the manufacturer's instruction. HEK293 cells were co-transfected with 45 ng of TOPFlash reporter gene, 135 ng pc DNA3.1-β-catenin, and 20 ng of pCMV-RL normalization reporter gene. SW480 cells were co-transfected with 60 ng of the TOPFlash or FOPFlash reporter gene and 40 ng of pCMV-RL, normalization reporter. Cells were cultured in DMEM and 10% FBS at 37° C. for 24 h, and different concentrations of inhibitors or DMSO was added After 24 h, the luciferase reporter activity was measured using the Dual-Glo system (E2940, Promega). Normalized luciferase activity in response to the treatment with 1 and 2 was compared with that obtained from the cells treated with DMSO. Experiments were performed in triplicate.

[7] = system: TOPFlash luciferase reporter (three wild-type Tcf binding sites) in β-catenin-activated HEK239; assay: Wnt-responsive TOPFlash luciferase reporter assay, β-catenin-activated HEK293; assay type: cell-based; settings: 24 h treatment, mean ± SD (n = 3)
Protocol: as §2

[8] = AlphaScreen, mean ± standard deviation (n = 3), Ki derived from IC50

| SMILES | Ki [1, 8] [µM] | IC50 [2] [µM] | IC50 [3] [µM] | IC50 [4] [µM] | IC50 [5] [µM] | IC50 [6] [µM] | IC50 ([2]; Homo sapiens, SW480) [µM] | IC50 ([3]; Homo sapiens, HCT-116) [µM] | IC50 ([4]; Homo sapiens, MDA-MB-231) [µM] | IC50 ([5]; Homo sapiens, A549) [µM] | IC50 ([7]; HEK239) [µM] | IC50 ([6]; Homo sapiens, SW480) [µM] | IC50 [7] [µM] | Ki [1] [µM] |
| --- | --- | --- | --- | --- | --- | --- | --- | --- | --- | --- | --- | --- | --- | --- |
| O=C(Nc1ccc(O[C@H]2CCNC2)c(-c2ccc(F)cc2)c1)c1ccc(O[C@H]2CCNC2)c(C2=CCCCC2)c1 [Compound 4, N-(4^+-fluoro-6-(((S)-pyrrolidin-3-yl)oxy)-[1,1′-biphenyl]-6-(((S)-pyrrolidin-3-yl)oxy)-2′,3′,4′,5′-tetrahydro-[1.1′-biphenyl]-3-carboxamidedihydrochloride] | 7.1 ± 2.5 | 3.7 ± 2 | 6.9 ± 3.2 | 3.4 ± 1.6 | 8.9 ± 2.7 | 8.7 ± 2.3 | – | – | – | – | – | – | – | – |
| Fc1ccc(-c2cc(-c3cnc4cc(O[C@H]5CCNC5)c(-c5ccc(F)c(F)c5)cc4c3)ccc2O[C@H]2CCNC2)cc1 [Compound 2, 6-(3.4-difluorophenyl)-3-(4′-fluoro-6-((S)-pyrrolidin-3-yloxy)-[1,1′-biphenyl]-3-yl)-7-((S)-pyrrolidin-3-yloxy)quinoline dihydrochloride] | – | – | – | – | – | – | 1.7 ± 0.9 | 2.2 ± 1 | 3.1 ± 1.2 | 7.5 ± 2.9 | 14 ± 1.5 | 7.9 ± 1.4 | – | – |
| O=C(Nc1ccc(O[C@H]2CCNC2)c(-c2ccc(F)cc2)c1)c1ccc(O[C@H]2CCNC2)c(C2CCC(C(F)(F)F)CC2)c1 (stereo partly drawn) [Compound 5, N-(-4′-fluoro-6-(((S)-pyrrolidin-3-yl)oxy)-[1,1′-biphenyl]-3-yl)-4-(((S)-pyrrolidin-3-yl)oxy)-3-(4-(trifluoromethyl)cyclohexyl) benzamide dilydrocholoride] | 4.2 ± 2.3 | 3.6 ± 2.7 | 5.6 ± 2.7 | 2.3 ± 1 | 4.8 ± 2.4 | 10 ± 3.3 | – | – | – | – | – | – | 10 ± 3.2 | – |
| O=C(Nc1ccc(O[C@H]2CCNC2)c(-c2ccc(F)cc2)c1)c1ccc(O[C@H]2CCNC2)c(C2CCCCC2)c1 [Compound 3, 3-cyclohexyl-N-(4′-fluoro-6-(((S)-pyrrolidin-3-yl)oxy)-[1,1′-biphenyl]-3-4-(((S)-pyrrolidin-3-yl)oxy)benzamidedihydrochloride] | 14 ± 1.6 | 6.6 ± 2.7 | 3.8 ± 1.5 | – | 3.8 ± 1.5 | – | – | – | – | – | – | – | – | – |
| Fc1ccc(-c2cc(-c3ccc4cc(O[C@H]5CCNC5)c(-c5ccc(F)c(F)c5)cc4n3)ccc2O[C@H]2CCNC2)cc1 [Compound 1, 7-(3,4-difluorophenyl)-2-(4′-fluoro-6-((S)-pyrrolidin-3-yloxy)-[1,1′-biphenyl]-3-yl)-6-((S)-pyrrolidin-3-yloxy)quinoline dihydrochloride] | – | – | – | – | – | – | 3.6 ± 1.9 | 9.6 ± 2.5 | 15 ± 6.1 | 23 ± 4.4 | 26 ± 3.1 | 12 ± 1.5 | – | 8 ± 1.8 |
